From ChEMBL document CHEMBL4004825 (J Med Chem, 2017)
pIC50, pKi: −log10 of the molar value.

Key:
[1] = Oral bioavailability in dog; assay type: ADME, organism-based, Canis lupus familiaris; conditions: in vivo
[2] = target: T1, Tyrosine-protein kinase Blk (Homo sapiens, UniProt P51451); assay: Inhibition of full length recombinant human His-tagged cytoplasmic BLK expressed in baculovirus expression system by KT236 probe based TR-FRET assay
[3] = target: T2, Tyrosine-protein kinase TXK (Homo sapiens, UniProt P42681); assay: Inhibition of recombinant human N-terminal GST-tagged TXK using GEPLYWSFPAKKK as substrate measured every 60 secs for 1 hr by PK/LDH coupled spectrophotometric assay
T2 sequence (P42681 whole entry): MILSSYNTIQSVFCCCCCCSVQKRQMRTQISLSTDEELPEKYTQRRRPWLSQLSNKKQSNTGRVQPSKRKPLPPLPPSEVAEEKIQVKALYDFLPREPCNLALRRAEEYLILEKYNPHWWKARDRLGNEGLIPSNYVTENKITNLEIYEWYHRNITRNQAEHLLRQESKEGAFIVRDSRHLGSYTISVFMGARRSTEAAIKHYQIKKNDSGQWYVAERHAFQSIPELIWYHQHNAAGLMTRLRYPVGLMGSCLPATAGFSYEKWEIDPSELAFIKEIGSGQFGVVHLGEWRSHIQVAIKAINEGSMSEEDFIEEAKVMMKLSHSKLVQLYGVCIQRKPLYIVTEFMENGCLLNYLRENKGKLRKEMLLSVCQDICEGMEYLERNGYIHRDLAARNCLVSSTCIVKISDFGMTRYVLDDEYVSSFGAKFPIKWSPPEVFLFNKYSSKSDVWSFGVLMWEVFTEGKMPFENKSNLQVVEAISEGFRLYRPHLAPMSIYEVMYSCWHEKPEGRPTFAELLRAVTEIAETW

[4] = Volume of distribution at steady state in rat; assay type: ADME; conditions: in vivo, read-out: Vdss
[5] = target: T1, Tyrosine-protein kinase Blk; assay: Inhibition of full length recombinant human His-tagged cytoplasmic BLK expressed in baculovirus expression system in presence of 1 mM ATP by KT236 probe based TR-FRET assay
[6] = Oral bioavailability in mouse; assay type: ADME, organism-based; conditions: in vivo
[7] = Blood clearance in dog; assay type: ADME, Canis lupus familiaris; conditions: whole blood
[8] = Unbound intrinsic clearance in monkey hepatocytes assessed per million cells; assay type: ADME, cell-based, Macaca mulatta, Hepatocyte; conditions: rhesus monkey
[9] = Half life in rat plasma; assay type: ADME
[10] = Half-life in rat blood; assay type: ADME, tissue-based
[11] = Permeability in RRCK cells; assay type: ADME, cell-based, Canis lupus familiaris, MDCKII-LE; conditions: dog, MDCK; read-out: permeability
[12] = Half-life in monkey blood; assay type: ADME, tissue-based, Macaca mulatta; conditions: rhesus monkey
[13] = Blood clearance in monkey; assay type: ADME, Macaca mulatta; conditions: rhesus monkey, whole blood
[14] = Unbound intrinsic clearance in mouse hepatocytes assessed per million cells; assay type: ADME, cell-based, Hepatocyte
[15] = Unbound intrinsic clearance in rat hepatocytes assessed per million cells; assay type: ADME, cell-based, Hepatocyte
[16] = Volume of distribution at steady state in dog; assay type: ADME, Canis lupus familiaris; conditions: in vivo, read-out: Vdss
[17] = Half life in monkey plasma; assay type: ADME, Macaca mulatta; conditions: rhesus monkey
[18] = target: Epidermal growth factor receptor (Homo sapiens, UniProt P00533); assay: Inhibition of N-terminal GST-tagged human EGFR cytoplasmic domain expressed in baculovirus infected Sf21 insect cells in presence of 1 mM ATP
[19] = Volume of distribution at steady state in monkey; assay type: ADME, Macaca mulatta; conditions: rhesus monkey, in vivo; read-out: Vdss
[20] = Aqueous solubility of the compound; assay type: physicochemical
[21] = Half life in mouse plasma; assay type: ADME
[22] = Stability in human liver microsomes; assay type: ADME, microsome; conditions: read-out: Stability
[23] = Half life in dog plasma; assay type: ADME, Canis lupus familiaris
[24] = Blood clearance in mouse; assay type: ADME, organism-based; conditions: whole blood
[25] = Volume of distribution at steady state in mouse; assay type: ADME, organism-based; conditions: in vivo, read-out: Vdss
[26] = target: T3, Tyrosine-protein kinase Tec (Homo sapiens, UniProt P42680); assay: Inhibition of full length human His-tagged TEC by KT178 probe based TR-FRET assay
T3 sequence (P42680 whole entry): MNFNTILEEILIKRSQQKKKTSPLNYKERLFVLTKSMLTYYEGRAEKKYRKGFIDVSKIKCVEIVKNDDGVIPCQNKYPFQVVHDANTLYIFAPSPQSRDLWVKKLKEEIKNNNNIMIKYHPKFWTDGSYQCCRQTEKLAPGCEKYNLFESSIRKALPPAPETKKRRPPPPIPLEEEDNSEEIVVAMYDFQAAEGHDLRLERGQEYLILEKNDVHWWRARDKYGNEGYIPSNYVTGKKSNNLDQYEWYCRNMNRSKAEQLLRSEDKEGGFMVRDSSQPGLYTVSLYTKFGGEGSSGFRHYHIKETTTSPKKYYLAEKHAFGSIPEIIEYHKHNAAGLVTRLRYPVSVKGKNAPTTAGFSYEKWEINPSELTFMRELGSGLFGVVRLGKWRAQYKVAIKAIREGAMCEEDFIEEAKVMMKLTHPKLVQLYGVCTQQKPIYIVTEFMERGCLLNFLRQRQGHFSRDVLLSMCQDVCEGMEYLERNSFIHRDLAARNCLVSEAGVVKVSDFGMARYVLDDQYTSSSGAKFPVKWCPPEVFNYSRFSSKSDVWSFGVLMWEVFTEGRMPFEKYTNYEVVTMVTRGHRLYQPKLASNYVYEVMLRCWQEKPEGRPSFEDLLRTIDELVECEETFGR

[27] = Half-life in Sprague-Dawley rat blood at 1 uM by LC-MS/MS analysis; assay type: ADME, tissue-based
[28] = target: Receptor tyrosine-protein kinase erbB-2 (Homo sapiens, UniProt P04626); assay: Inhibition of human N-terminal His-tagged HER2 expressed in baculovirus expression system in presence of 1 mM ATP
[29] = target: T4, Dual specificity mitogen-activated protein kinase kinase 7 (Homo sapiens, UniProt O14733); assay: Inhibition of human N-terminal GST-tagged full length MAP2K7 expressed in baculovirus infected Sf21 insect cells in presence of 1 mM ATP
T4 sequence (O14733 whole entry): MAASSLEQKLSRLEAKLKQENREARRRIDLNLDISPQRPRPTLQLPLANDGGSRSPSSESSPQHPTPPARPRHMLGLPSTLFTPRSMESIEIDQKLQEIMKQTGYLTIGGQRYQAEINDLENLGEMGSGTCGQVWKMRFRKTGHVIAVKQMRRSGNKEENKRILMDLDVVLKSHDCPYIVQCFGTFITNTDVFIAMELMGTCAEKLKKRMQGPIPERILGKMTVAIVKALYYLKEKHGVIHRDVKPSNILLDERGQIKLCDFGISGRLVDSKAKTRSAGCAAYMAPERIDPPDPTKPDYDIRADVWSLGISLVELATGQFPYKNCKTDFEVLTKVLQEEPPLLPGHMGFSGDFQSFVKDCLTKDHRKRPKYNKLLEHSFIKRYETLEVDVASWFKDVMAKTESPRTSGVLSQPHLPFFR

[30] = Oral bioavailability in rat; assay type: ADME, organism-based; conditions: in vivo
[31] = Oral bioavailability in monkey; assay type: ADME, organism-based, Macaca mulatta; conditions: rhesus monkey, in vivo
[32] = Stability in rat liver microsomes; assay type: ADME, microsome; conditions: read-out: Stability
[33] = Unbound intrinsic clearance in dog hepatocytes assessed per million cells; assay type: ADME, cell-based, Canis lupus familiaris, Hepatocyte
[34] = Blood clearance in rat; assay type: ADME; conditions: whole blood
[35] = Unbound intrinsic clearance in human hepatocytes assessed per million cells; assay type: ADME, cell-based, Hepatocyte

T1 sequence (P51451 whole entry): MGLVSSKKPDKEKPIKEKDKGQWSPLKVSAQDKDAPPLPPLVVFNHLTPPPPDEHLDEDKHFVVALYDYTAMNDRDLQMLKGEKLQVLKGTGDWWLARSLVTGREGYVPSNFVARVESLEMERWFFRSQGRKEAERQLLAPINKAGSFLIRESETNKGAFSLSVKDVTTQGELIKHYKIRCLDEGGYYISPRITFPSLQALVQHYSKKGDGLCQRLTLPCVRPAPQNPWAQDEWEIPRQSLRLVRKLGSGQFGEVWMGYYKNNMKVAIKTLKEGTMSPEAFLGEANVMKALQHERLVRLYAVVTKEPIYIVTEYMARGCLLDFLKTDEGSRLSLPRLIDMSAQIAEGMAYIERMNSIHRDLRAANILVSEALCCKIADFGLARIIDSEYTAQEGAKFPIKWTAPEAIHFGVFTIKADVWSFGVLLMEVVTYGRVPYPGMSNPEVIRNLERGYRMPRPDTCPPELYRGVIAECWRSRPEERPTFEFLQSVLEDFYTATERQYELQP
Sequence of Receptor tyrosine-protein kinase erbB-2 (P04626 whole entry): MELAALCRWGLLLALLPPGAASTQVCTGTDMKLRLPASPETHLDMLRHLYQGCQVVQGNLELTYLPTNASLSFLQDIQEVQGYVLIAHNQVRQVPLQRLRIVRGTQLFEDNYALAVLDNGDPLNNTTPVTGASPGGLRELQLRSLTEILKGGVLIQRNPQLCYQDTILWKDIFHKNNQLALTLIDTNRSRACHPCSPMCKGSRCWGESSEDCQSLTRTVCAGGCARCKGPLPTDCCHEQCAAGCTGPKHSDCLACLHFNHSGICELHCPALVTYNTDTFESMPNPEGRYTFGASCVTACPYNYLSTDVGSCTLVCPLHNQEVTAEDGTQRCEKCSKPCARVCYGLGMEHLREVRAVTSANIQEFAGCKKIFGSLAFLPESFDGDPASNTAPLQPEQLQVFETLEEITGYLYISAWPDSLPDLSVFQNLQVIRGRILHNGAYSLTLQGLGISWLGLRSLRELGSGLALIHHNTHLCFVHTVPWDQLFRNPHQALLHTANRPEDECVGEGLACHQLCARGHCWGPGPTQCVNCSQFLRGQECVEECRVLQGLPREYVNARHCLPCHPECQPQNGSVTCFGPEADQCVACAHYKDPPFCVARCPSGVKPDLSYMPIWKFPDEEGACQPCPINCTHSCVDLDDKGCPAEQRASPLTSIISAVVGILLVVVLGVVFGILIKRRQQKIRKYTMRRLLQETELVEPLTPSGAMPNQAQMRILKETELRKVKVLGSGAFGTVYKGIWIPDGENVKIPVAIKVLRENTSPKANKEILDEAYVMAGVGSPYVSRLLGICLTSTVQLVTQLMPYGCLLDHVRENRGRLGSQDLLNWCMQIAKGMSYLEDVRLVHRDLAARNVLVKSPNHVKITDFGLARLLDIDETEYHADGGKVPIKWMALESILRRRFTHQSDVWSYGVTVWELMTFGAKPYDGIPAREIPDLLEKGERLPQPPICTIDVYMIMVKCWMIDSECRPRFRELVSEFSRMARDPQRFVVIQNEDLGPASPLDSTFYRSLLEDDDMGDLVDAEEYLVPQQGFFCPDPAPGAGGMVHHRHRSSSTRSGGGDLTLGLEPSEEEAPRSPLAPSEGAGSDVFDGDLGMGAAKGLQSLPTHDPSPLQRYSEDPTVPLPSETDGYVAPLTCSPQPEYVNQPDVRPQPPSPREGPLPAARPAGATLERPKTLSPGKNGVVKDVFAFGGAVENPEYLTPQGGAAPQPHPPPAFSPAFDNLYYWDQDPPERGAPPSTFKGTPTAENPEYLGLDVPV
Sequence of Epidermal growth factor receptor (P00533 whole entry, the tested form may be a part): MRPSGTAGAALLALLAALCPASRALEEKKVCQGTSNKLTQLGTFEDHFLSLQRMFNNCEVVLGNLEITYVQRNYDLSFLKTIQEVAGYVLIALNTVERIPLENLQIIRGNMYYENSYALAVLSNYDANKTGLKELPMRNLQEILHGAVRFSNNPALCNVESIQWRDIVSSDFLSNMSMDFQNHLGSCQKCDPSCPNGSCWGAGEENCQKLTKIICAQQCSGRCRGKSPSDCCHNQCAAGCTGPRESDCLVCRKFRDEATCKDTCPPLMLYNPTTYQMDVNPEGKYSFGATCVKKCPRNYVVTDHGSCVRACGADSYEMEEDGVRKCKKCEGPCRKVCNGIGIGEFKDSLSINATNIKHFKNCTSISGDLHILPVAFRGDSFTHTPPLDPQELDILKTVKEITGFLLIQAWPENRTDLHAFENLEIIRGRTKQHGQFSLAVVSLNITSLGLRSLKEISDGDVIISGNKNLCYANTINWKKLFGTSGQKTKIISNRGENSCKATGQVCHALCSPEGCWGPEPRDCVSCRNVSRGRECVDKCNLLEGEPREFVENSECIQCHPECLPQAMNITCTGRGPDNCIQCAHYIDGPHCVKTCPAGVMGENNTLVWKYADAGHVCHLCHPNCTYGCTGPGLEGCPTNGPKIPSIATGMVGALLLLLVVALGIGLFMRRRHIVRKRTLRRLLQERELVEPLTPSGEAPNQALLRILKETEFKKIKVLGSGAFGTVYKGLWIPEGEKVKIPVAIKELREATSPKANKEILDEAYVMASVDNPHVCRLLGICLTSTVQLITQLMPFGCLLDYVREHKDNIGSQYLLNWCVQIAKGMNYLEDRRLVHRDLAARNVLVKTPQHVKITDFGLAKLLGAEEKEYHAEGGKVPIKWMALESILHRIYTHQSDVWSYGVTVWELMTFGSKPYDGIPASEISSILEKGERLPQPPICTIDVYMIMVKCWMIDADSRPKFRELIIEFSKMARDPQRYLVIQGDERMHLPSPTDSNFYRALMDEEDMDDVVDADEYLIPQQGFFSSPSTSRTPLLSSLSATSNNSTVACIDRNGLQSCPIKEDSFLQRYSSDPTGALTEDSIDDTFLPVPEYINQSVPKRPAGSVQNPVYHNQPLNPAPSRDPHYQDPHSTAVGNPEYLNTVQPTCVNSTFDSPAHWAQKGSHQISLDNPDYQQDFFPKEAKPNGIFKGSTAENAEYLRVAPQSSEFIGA

bioavailability [1]: 109% | pKi [2]: 4.49 | pKi [3]: 6.88 | Vd [4]: 1.4 L/kg | pIC50 [5]: 4.72 | bioavailability [6]: 62% | clearance [7]: 8.6 mL/min/kg | CL free [8]: 7.6 µL/min | half-life [9]: 0.3 h | half-life [10]: 2.68 h | Papp [11]: 15 ×10⁻⁶ cm/s | half-life [12]: 0.617 h | clearance [13]: 42 mL/min/kg | CL free [14]: 53 µL/min | CL free [15]: 14 µL/min | Vd [16]: 1.1 L/kg | half-life [17]: 0.7 h | pIC50 [18]: < 4.30 | Vd [19]: 2.6 L/kg | solubility [20]: > 2000 µg/mL | half-life [21]: 1.3 h | microsomal CLint [22]: 8 µL/min/mg | half-life [23]: 1.1 h | clearance [24]: 48 mL/min/kg | Vd [25]: 0.8 L/kg | pKi [26]: 6.17 | half-life at 1 µM [27]: 2.68 h | pIC50 [28]: < 4.30 | pIC50 [29]: < 4.30 | bioavailability [30]: 85% | bioavailability [31]: 56% | microsomal CLint [32]: < 15 µL/min/mg | CL free [33]: 2.1 µL/min | clearance [34]: 53 mL/min/kg | CL free [35]: 2.8 µL/min
SMILES: C=CC(=O)N1C[C@H](Nc2ncnc3[nH]ccc23)CC[C@@H]1C [RITLECITINIB]
